The values below are quoted from earlier work in patent US20090325155A1, “Aureobasin a synthetase” (priority 2005, published 2009).

Starred links: 1 amine or outer side, 2 acyl side, 3 side chain; linkers in the order of their positions; H or OH if unused. Non-standard residues stand in square brackets, D forms with d. Residues, ends and D or L forms follow the SMILES beside them. ξ: configuration not given here. NMeVal(β-OH) = CN[C@H](C(=O)O)C(C)(C)O; X1 = CCC(C)[C@@H](O[*:1])C(=O)[*:2]; NMeF = CN[C@@H](Cc1ccccc1)C(=O)O; Ile(3ξ) = CCC(C)[C@H](N)C(=O)O; NMeV = CN[C@H](C(=O)O)C(C)C

The test system of data set [1] is Candida spp.
Data set [2] relates to Aspergillus spp. To be noted: third major human pathogen.
For data set [3], the system named is a number of fungi, including yeasts, such as Saccharomyces cerevisiae and Schizosaccharomyces pombe. Particulars: low concentration toxic against a number of fungi.
Data set [4] deals with Cryptococcus neoformans.

With `CCC(C)[C@@H]1NC(=O)[C@@H]2CCCN2C(=O)[C@H](Cc2ccccc2)N(C)C(=O)[C@H](Cc2ccccc2)NC(=O)[C@H](C(C)C)N(C)C(=O)[C@@H](C(C)CC)OC(=O)[C@H](C(C)(C)O)N(C)C(=O)[C@H](CC(C)C)NC(=O)[C@H](C(C)C)N(C)C1=O` (stereo partly drawn) [AbA, Aureobasidin A] (cyclo(F[NMeF]P[Ile(3ξ)][NMeV]L[NMeVal(β-OH)][X1][NMeV])), the “cidal to fungal pathogen” value in data set [1] and in data set [4] was “cidal” throughout. For the same compound, the “toxicity to fungal pathogen” value in data set [2] was “not toxic”. Also, in data set [3], the “concentration at which toxic” value was 0.1 to 0.5 µg/mL.
